Molecular target: T1, hFXR (Homo sapiens, UniProt Q96RI1)
T1 construct: expressed in transfected cells; host or cells: CV-1 cells
T1 sequence (Q96RI1 1-486): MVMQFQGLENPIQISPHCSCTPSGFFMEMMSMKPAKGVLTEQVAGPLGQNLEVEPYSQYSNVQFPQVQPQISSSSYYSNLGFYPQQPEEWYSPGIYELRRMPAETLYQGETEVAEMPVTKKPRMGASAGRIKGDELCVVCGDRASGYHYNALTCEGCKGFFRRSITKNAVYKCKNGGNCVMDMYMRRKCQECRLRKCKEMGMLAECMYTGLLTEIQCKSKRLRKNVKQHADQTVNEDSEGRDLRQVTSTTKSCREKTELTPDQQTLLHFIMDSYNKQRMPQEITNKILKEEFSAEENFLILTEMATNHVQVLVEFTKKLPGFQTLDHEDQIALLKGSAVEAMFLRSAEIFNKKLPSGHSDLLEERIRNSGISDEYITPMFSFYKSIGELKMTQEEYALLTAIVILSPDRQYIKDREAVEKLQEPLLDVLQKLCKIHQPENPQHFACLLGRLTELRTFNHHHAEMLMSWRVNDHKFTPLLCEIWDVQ
T1 sequence (P19793 1-462 partner): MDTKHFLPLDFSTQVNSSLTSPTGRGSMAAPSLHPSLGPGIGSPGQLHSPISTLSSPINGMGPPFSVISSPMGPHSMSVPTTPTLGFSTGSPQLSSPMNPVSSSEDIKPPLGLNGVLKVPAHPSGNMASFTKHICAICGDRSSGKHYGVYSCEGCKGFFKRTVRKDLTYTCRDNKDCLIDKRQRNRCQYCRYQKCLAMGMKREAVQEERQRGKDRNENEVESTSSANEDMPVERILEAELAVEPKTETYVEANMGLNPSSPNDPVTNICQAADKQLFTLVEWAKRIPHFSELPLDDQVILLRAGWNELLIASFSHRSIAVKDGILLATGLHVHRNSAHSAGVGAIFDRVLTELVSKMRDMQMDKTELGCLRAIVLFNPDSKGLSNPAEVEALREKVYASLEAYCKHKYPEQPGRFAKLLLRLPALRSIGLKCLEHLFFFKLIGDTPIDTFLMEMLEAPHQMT
Test: In Vitro FXR Assay (TK): TK-ECRE-luc reporter in transfected CV-1 cells
Assay type: cell-based
Settings: 18 hrs, luminescence, maximum efficacy of <25% of the Fexarmine control classified as '+'
Method in brief: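 Luciferase read-out after 18 h compound exposure of CV-1 cells carrying transfected hFXR plus hRXR expression plasmids, TK-ECRE-luc reporter and pCMX-YFP. Cells cultured in charcoal-stripped FBS before transfection; compounds serially diluted in DMSO.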

EC50 [nM] | SMILES
≤ 250 | COC(=O)C12CCC(C(=O)N(C[C@H]3CC[C@H](c4ccc(OC)c(C)c4)CC3)c3cccc(-c4cnc(OC)s4)c3)(CC1)CC2 [Compound 18.10, Methyl 4-(((trans-4-(4-methoxy-3-methylphenyl)cyclohexyl)methyl)(3-(2-methoxythiazol-5-yl)phenyl)carbamoyl)bicyclo[2.2.2]octane-1-carboxylate]
≤ 250 | COc1ccc([C@H]2CC[C@H](CN(c3cc(-c4coc(C(C)C)n4)ccn3)C(=O)[C@H]3CC[C@H](OC(=O)NCC(C)(C)O)CC3)CC2)nc1C [Compound 6.91, trans-4-((4-(2-Isopropyloxazol-4-yl)pyridin-2-yl)((trans-4-(5-methoxy-6-methylpyridin-2-yl)cyclohexyl)methyl)carbamoyl)cyclohexyl (2-hydroxy-2-methylpropyl)carbamate]
≤ 250 | COc1ccc([C@H]2CC[C@H](CN(c3cc(-c4coc(C5CC5)n4)ccn3)C(=O)[C@H]3CC[C@H](OC(=O)NC[C@H](C)O)CC3)CC2)nc1C [Compound 6.96, trans-4-((4-(2-Cyclopropyloxazol-4-yl)pyridin-2-yl)((trans-4-(5-methoxy-6-methylpyridin-2-yl)cyclohexyl)methyl)carbamoyl)cyclohexyl ((S)-2-hydroxypropyl)carbamate]
≤ 250 | COc1ccc([C@H]2CC[C@H](CN(c3cc(-c4cnn(C(C)C)c4)ccn3)C(=O)[C@H]3CC[C@H](OC(=O)N4CC(N(C)C)C4)CC3)CC2)cc1C#N [Compound 7.50, trans-4-(((trans-4-(3-Cyano-4-methoxyphenyl)cyclohexyl)methyl)(4-(1-isopropyl-1H-pyrazol-4-yl)pyridin-2-yl)carbamoyl)cyclohexyl 3-(dimethylamino)azetidine-1-carboxylate]
250 to 1000 | COc1ccc([C@H]2CC[C@H](CN(c3cc(-c4coc(C5CC5)n4)ccn3)C(=O)[C@H]3CC[C@H](OC(=O)NC[C@H](O)CO)CC3)CC2)nc1C [Compound 6.66, trans-4-((4-(2-Cyclopropyloxazol-4-yl)pyridine-2-yl)((trans-4-(5-methoxy-6-methylpyridin-2-yl)cyclohexyl)methyl)carbamoyl)cyclohexyl ((S)-2,3-dihydroxypropyl)carbamate]
≤ 250 | COc1ccc([C@H]2CC[C@H](CN(c3cccc(-c4cnn(C5CC5)c4)c3)C(=O)[C@H]3CC[C@H](CNC(C)=O)CC3)CC2)cc1C [Compound 26.13, trans-4-(Acetamidomethyl)-N-(3-(1-cyclopropyl-1H-pyrazol-4-yl)phenyl)-N-((trans-4-(4-methoxy-3-methylphenyl)cyclohexyl)methyl) cyclohexanecarboxamide]
≤ 250 | COCCN(C)C(=O)O[C@H]1CC[C@H](C(=O)N(C[C@H]2CC[C@H](c3ccc(OC)c(C)n3)CC2)c2cc(-c3coc(C4CC4)n3)ccn2)CC1 [Compound 6.63]
≤ 250 | COc1ccc(C23CCC(CN(c4cccc(-c5cnn(C6CC6)c5)c4)C(=O)[C@H]4CC[C@H](NC(C)=O)CC4)(CC2)CC3)cc1C [Compound 26.07, trans-4-Acetamido-N-(3-(1-cyclopropyl-1H-pyrazol-4-yl)phenyl)-N-((4-(4-methoxy-3-methylphenyl)bicyclo[2.2.2]octan-1-yl)methyl)cyclohexanecarboxamide]
≤ 250 | COc1ccc([C@H]2CC[C@H](CN(c3cccc(-c4cnn(C(C)C)c4)c3)C(=O)[C@H]3CC[C@H](CC(=O)O)CC3)CC2)cc1C [Compound 20.14, 2-(trans-4-((3-(1-Isopropyl-1H-pyrazol-4-yl)phenyl)((trans-4-(4-methoxy-3-methylphenyl)cyclohexyl)methyl)carbamoyl)cyclohexyl)acetic acid]
≤ 250 | COc1ccc([C@H]2CC[C@H](CN(c3cccc(-c4cnn(C5CC5)c4)c3)C(=O)[C@H]3CC[C@H](NC(=O)COCCCO)CC3)CC2)cc1C [Compound 32, trans-N-(3-(1-Cyclopropyl-1H-pyrazol-4-yl)phenyl)-4-(2-(3-hydroxypropoxy)acetamido)-N-((trans-4-(4-methoxy-3-methylphenyl)cyclohexyl)methyl)cyclohexanecarboxamide]
≤ 250 | CNC(=O)O[C@H]1CC[C@H](C(=O)N(C[C@H]2CC[C@H](c3ccc(OC)c(C#N)c3)CC2)c2cc(-c3coc(C(C)C)n3)ccn2)CC1 [Compound 5.45, trans-4-(((trans-4-(3-Cyano-4-methoxyphenyl)cyclohexyl)methyl)(4-(2-isopropyloxazol-4-yl)pyridine-2-yl)carbamoyl)cyclohexyl methylcarbamate]
≤ 250 | COc1ccc([C@H]2CC[C@H](CN(c3cc(-c4coc(C5CC5)n4)ccn3)C(=O)[C@H]3CC[C@H](C(=O)O)CC3)CC2)cc1C [Compound 18.02, trans-4-((4-(2-Cyclopropyloxazol-4-yl)pyridine-2-yl)((trans-4-(4-methoxy-3-methylphenyl)cyclohexyl)methyl)carbamoyl)cyclohexanecarboxylic acid]
≤ 250 | COc1ccc([C@H]2CC[C@H](CN(c3cccc(-c4cnn(C(C)C)c4)c3)C(=O)[C@H]3CC[C@H](OC(=O)N4CC(OC)C4)CC3)CC2)nc1C [Compound 7.52, trans-4-((3-(1-Isopropyl-1H-pyrazol-4-yl)phenyl)((trans-4-(5-methoxy-6-methylpyridin-2-yl)cyclohexyl)methyl)carbamoyl)cyclohexyl 3-methoxyazetidine-1-carboxylate]
≤ 250 | COc1ccc([C@H]2CC[C@H](CN(c3cccc(-c4coc(C5CC5)n4)c3)C(=O)[C@H]3CC[C@H](C(=O)O)CC3)CC2)cc1C#N [Compound 18, trans-4-(((trans-4-(3-Cyano-4-methoxyphenyl)cyclohexyl)methyl)(3-(2-cyclopropyloxazol-4-yl)phenyl)carbamoyl)cyclohexanecarboxylic acid]
≤ 250 | CNC(=O)O[C@H]1CC[C@H](C(=O)N(C[C@H]2CC[C@H](c3ccc(OC)c(C)n3)CC2)c2cc(-c3coc(C4CC4)n3)ccn2)CC1 [Compound 5.34, trans-4-((4-(2-Cyclopropyloxazol-4-yl)pyridine-2-yl)((trans-4-(5-methoxy-6-methylpyridin-2-yl)cyclohexyl)methyl)carbamoyl)cyclohexyl methylcarbamate]
≤ 250 | COc1ccc([C@H]2CC[C@H](CN(c3cccc(-c4cnn(C(C)C)c4)c3)C(=O)[C@H]3CC[C@H](OC(=O)N4CC(S(C)(=O)=O)C4)CC3)CC2)nc1C [Compound 6.42, trans-4-((3-(1-Isopropyl-1H-pyrazol-4-yl)phenyl)((trans-4-(5-methoxy-6-methylpyridin-2-yl)cyclohexyl)methyl)carbamoyl)cyclohexyl 3-(methylsulfonyl)azetidine-1-carboxylate]
≤ 250 | COc1ccc([C@H]2CC[C@H](CN(c3cccc(-c4coc(C5CC5)n4)c3)C(=O)[C@H]3CC[C@H](OC(=O)NCCO)CC3)CC2)nc1C#N [Compound 6.55, trans-4-(((trans-4-(6-Cyano-5-methoxypyridin-2-yl)cyclohexyl)methyl)(3-(2-cyclopropyloxazol-4-yl)phenyl)carbamoyl)cyclohexyl (2-hydroxyethyl)carbamate]
≤ 250 | COc1ccc([C@H]2CC[C@H](CN(c3cccc(-c4cnn(C5CC5)c4)c3)C(=O)[C@H]3CC[C@H](NC(=O)OCCO)CC3)CC2)cc1C [Compound 26.05, 2-Hydroxyethyl (trans-4-((3-(1-cyclopropyl-1H-pyrazol-4-yl)phenyl)((trans-4-(4-methoxy-3-methylphenyl)cyclohexyl)methyl)carbamoyl)cyclohexyl)carbamate]
